# Test results as given in patent US20100062477A1, “METHODS OF ISOLATING AND PROPAGATING STEM CELLS FROM BENIGN TUMORS” (CEDARS-SINAI MEDICAL CENTER, priority 2006, published 2010).
# Tested on: Pituitary tumor stem cells and adherent daughter cells
# Experiment: WST-1 proliferation assay of resistance to chemotherapeutic treatment
# Format: cell-based, human
# Conditions: 50 μM carboplatin and 12.5 μM VP16 for 48 h; stem cells compared with adherent cells
# Procedure: Pituitary tumor stem cells and adherent daughter cells were also tested for the resistance to chemotherapeutic treatment. Cells were treated with 50 μM carboplatin and 12.5 μM VP16 for 48 h and the toxicity was assessed by WST-1 proliferation assay.
row,Structure (SMILES),toxicity assessed by WST-1 proliferation assay (resistance of pituitary tumor stem cells vs adherent daughter cells)
1,COc1cc([C@@H]2c3cc4c(cc3[C@@H](O[C@@H]3O[C@@H]5CO[C@@H](C)O[C@H]5[C@H](O)[C@H]3O)[C@H]3COC(=O)[C@H]23)OCO4)cc(OC)c1O [VP16],significantly more resistant than the adherent cells
2,N.N.O=C([O-])C1(C(=O)[O-])CCC1.[Pt+2] [carboplatin],significantly more resistant than the adherent cells
